In US20090233307A1, “METHODS FOR DETECTION OF SINGLE STRAND BREAKS IN DNA” (The University of North Carolina at Chapel Hill, priority 2008, published 2009):

Experiments:
[1] = system: DT40 cells; assay: SSB repair through NAD(P)H depletion, DT40 cells; assay type: cell-based, chicken; conditions: 1 mM MMS for up to 4 hours, DT40 cells
Experimental: SSB repair capacity was determined by a real-time colorimetric assay that measures intracellular NAD(P)H levels (Tano et al., DNA Repair, 6, 869-875 (2007)). PARP-1 activation during SSB repair leads to NAD^+ consumption, which can be indirectly monitored through NAD(P)H depletion (Nakamura et al., Nucleic Acids Res., 31, e104 (2003)). Briefly, 5×10^3 cells/well were seeded into a 96-well plate. After a 30 minute incubation period, the cells were treated with 1 mM MMS quickly followed by the addition of a dye containing XTT (Sigma) and 1-methoxy PMS (Sigma). For up to 4 hours, the NAD(P)H-dependent conversion of the XTT tetrazolium salt to a yellow colored formazan dye was measured spectrophotometrically. Decreases in intracellular NAD(P)H levels were determined through comparison of values to those of the PBS control. Established methods for detecting SSBs have not been adequately characterized for pH effects on DNA structure and chemistry and also lack a high specificity for SSBs, primarily because of artifactual SSB formation. […] The accumulation of SSBs leads to PARP-1 over-activation and the consumption of NAD+, which is indirectly monitored in living cells through the measurement of intracellular NAD(P)H depletion using tetrazolium salts, such as XTT, during chemical exposure (Tano et al., DNA Repair, 6, 869-875 (2007)). […]

[2] = system: Pol β null cells; assay: Alkaline gel electrophoresis with or without OTX of DNA from exposed Pol β null cells; assay type: cell-based, chicken; conditions: 1 mM MMS, 1-4 hours
Experimental: (§1) DT40 and Pol β null cells were seeded into 100 cm dishes and allowed to divide overnight to reach the density of 1×10^6 cells/mL. Cells were exposed to a continuous treatment of 1 mM methyl methanesulfonate (MMS; Aldrich) for up to 4 hours. Control cells received 1× phosphate buffered saline (PBS) for 0.5 hour. After incubation, cells were harvested, washed with chilled 1× PBS, pelleted, and stored at −80° C. until DNA isolation. Using this protocol, DT40 cells were also incubated in the absence of chemical to obtain a stock of untreated DNA.
DNA was extracted using a PureGene® DNA extraction kit (Gentra Systems. Inc.) with modifications as described previously (Nakamura et al., J. Biol. Chem., 275, 5323-5328 (2000)).
An alkaline gel electrophoresis protocol (AGE) (Drouin et al., in: Technologies for Detection of DNA Damage and Mutations (G. P. Pfeifer, ed.). Plenum Press, New York, N.Y., pp. 37-43 (1996)) with modifications was used to assess SSBs and ALSs in DNA from exposed cells. The 0.7% agarose gel was prepared in gel buffer (50 mM NaCl, 1 mM EDTA, pH 7) and deionized water. After forming, the gel was soaked in mild alkaline running buffer (30 mM NaOH, 1 mM EDTA, pH 12.4) for at least 30 minutes. Equal amounts of DNA (3-5 μg) were incubated for 1 hour at 37° C. in the presence or absence of 30 mM OTX (Aldrich) in 50 mM HEPES buffer. […]

[3] = system: Pol β null cells; assay type: cell-based, chicken
Experimental: as §1

[4] = system: isolated, genomic DNA; assay: SSB formation at N7-methylguanine adducts, isolated DNA, NaOH or piperidine denaturation, AGE; conditions: DNA + 1 mM MMS + 30 mM OTX 1 hour
Experimental: To visualize the conversion of MMS induced N7-methylguanine (N7-meG) adducts into SSBs, the AGE assay described above was modified with a piperidine treatment (Mattes et. al., Biochem. Biophys. Acta 868:71-76 (1986)). Equal amounts of DNA (25 μg) were incubated for 1 hour at 37° C. in the presence of 30 mM OTX (Aldrich) and 1 mM MMS or PBS in 50 mM HEPES buffer (pH 7). Treated DNA was washed and collected using microcon YM-3 centrifugal filter devices (Amicon Bioseparations). The treated DNA was then incubated with alkaline buffer (pH≧12.8) that contained either 100 mM NaOH or 1 M piperidine for 20 minutes at 37° C. This DNA was then washed and collected by centrifugal filter devices, and the concentrations determined by UV. DNA (3-5 μg) from each sample received loading dye and was loaded onto a 0.7% agarose gel prepared as previously described. Electrophoresis, neutralization, staining, and image analysis were performed as described above.
ALSs such as N7-methylguanine (N7-meG), the predominate lesion formed by monofunctional alkylating agents, are generated during MMS exposure (Wyatt et. al., Chem. Res. Toxicol. 19: 1580-1594 (2006)). In the absence of OTX, ALSs other than AP sites may contribute to SSBs detected during AGE. […]

COS(C)(=O)=O [MMS, methyl methanesulfonate]
intracellular NAD(P)H levels [1]: time-dependent decrease in intracellular NAD(P)H levels | SSB accumulation (DNA migration) by OTX-AGE [2]: clear time-dependent increase in DNA migration | AP site formation (ASB assay) compared with parental DT40 cells [3]: more massive AP site formation | AP sites (ASB assay) compared to control ([3]; chicken, 1 mM): time-dependent, significant (p<0.01 for all time points, student t-test) increase in AP sites | amount of SSBs after NaOH induced DNA denaturation, MMS treated vs control DNA ([4]; 100 mM NaOH 20 minutes): no difference in the amount of SSBs | DNA migration after piperidine treatment ([4]; 1 M piperidine 20 minutes, vs PBS control): notable increase in DNA migration
